Measured values from ChEMBL document CHEMBL1201862, “PubChem BioAssay data set” (2004).
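Method: 48-hour compound exposure of cells in 96-well plates, five concentrations, linear interpolation of endpoints. GI50 is the concentration that inhibits growth by half.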 Activity calls are given as the source filed them. Cut-off read from the data, not from the text of the source: active = GI50 up to about 1.1 µM and inactive = higher.

Legend:
Assay in all cases: NCI anticancer screen, dose series, 48 h
HCT-15 = tested on: HCT-15
T47D = tested on: T47D
HT-29 = tested on: HT-29
OVCAR-3 = tested on: OVCAR-3
HOP-62 = tested on: HOP-62
MDA-N = tested on: MDA-N
NCI-H226 = tested on: NCI-H226
HCC 2998 = tested on: HCC 2998
HL-60 = tested on: HL-60
MCF7 = tested on: MCF7
SNB-19 = tested on: SNB-19
HOP-92 = tested on: HOP-92
SNB-75 = tested on: SNB-75
UO-31 = tested on: UO-31
A549 = tested on: A549
RXF 393 = tested on: RXF 393
786-0 = tested on: 786-0
SF-268 = tested on: SF-268
RPMI-8226 = tested on: RPMI-8226
MOLT-4 = tested on: MOLT-4
SK-MEL-2 = tested on: SK-MEL-2
SF-295 = tested on: SF-295
HCT-116 = tested on: HCT-116
K562 = tested on: K562
OVCAR-4 = tested on: OVCAR-4
Hs-578T = tested on: Hs-578T
DU-145 = tested on: DU-145
Malme-3M = tested on: Malme-3M
LOX IMVI = tested on: LOX IMVI
BT-549 = tested on: BT-549
TK-10 = tested on: TK-10
NCI-H460 = tested on: NCI-H460
M14 = tested on: M14
KM12 = tested on: KM12
SN12C = tested on: SN12C
MDA-MB-231 = tested on: MDA-MB-231
CCRF-CEM = tested on: CCRF-CEM
COLO 205 = tested on: COLO 205
NCI-H23 = tested on: NCI-H23
IGROV-1 = tested on: IGROV-1
MDA-MB-435 = tested on: MDA-MB-435
NCI-H522 = tested on: NCI-H522
SK-MEL-28 = tested on: SK-MEL-28
SF-539 = tested on: SF-539
SW-620 = tested on: SW-620
U-251 = tested on: U-251
UACC-62 = tested on: UACC-62
ACHN = tested on: ACHN
OVCAR-8 = tested on: OVCAR-8
SK-MEL-5 = tested on: SK-MEL-5
SR = tested on: SR
CAKI-1 = tested on: CAKI-1
A498 = tested on: A498
OVCAR-5 = tested on: OVCAR-5
UACC-257 = tested on: UACC-257
SK-OV-3 = tested on: SK-OV-3
NCI/ADR-RES = tested on: NCI/ADR-RES
EKVX = tested on: EKVX

Compound: CC(C(=O)N1C(=O)N(C(=O)C(C)C(O)c2ccccc2)C(c2ccccc2)C1c1ccccc1)C(O)c1ccccc1 (stereo not drawn)
- GI50 (HCT-15): 15.5 µM
- GI50 (T47D): 6.47 µM (inactive)
- GI50 (HT-29): 5 µM (inactive)
- GI50 (OVCAR-3): 5.94 µM (inactive)
- GI50 (HOP-62): 12.3 µM (inactive)
- GI50 (MDA-N): > 10 µM (inactive)
- GI50 (NCI-H226): 12.4 µM (inactive)
- GI50 (HCC 2998): 20.9 µM (inactive)
- GI50 (HL-60): 2.27 µM (inactive)
- GI50 (MCF7): 4.43 µM (inactive)
- GI50 (SNB-19): 5.52 µM (inactive)
- GI50 (HOP-92): 5.92 µM (inactive)
- GI50 (SNB-75): 3.9 µM (inactive)
- GI50 (UO-31): 5.33 µM (inactive)
- GI50 (A549): 4.85 µM (inactive)
- GI50 (RXF 393): 6.21 µM (inactive)
- GI50 (786-0): 26.1 µM (inactive)
- GI50 (SF-268): 13.4 µM (inactive)
- GI50 (RPMI-8226): 4.01 µM (inactive)
- GI50 (MOLT-4): 3.66 µM (inactive)
- GI50 (SK-MEL-2): 10.2 µM (inactive)
- GI50 (SF-295): 2.84 µM (inactive)
- GI50 (HCT-116): 6.21 µM (inactive)
- GI50 (K562): 4.47 µM (inactive)
- GI50 (OVCAR-4): 13.4 µM (inactive)
- GI50 (Hs-578T): 11.1 µM (inactive)
- GI50 (DU-145): 21.3 µM (inactive)
- GI50 (Malme-3M): 12.2 µM (inactive)
- GI50 (LOX IMVI): 11.9 µM (inactive)
- GI50 (BT-549): 12.6 µM (inactive)
- GI50 (TK-10): 22.6 µM (inactive)
- GI50 (NCI-H460): 4.25 µM (inactive)
- GI50 (M14): 10.5 µM (inactive)
- GI50 (KM12): 3.34 µM (inactive)
- GI50 (SN12C): 12.9 µM (inactive)
- GI50 (MDA-MB-231): 16.6 µM (inactive)
- GI50 (CCRF-CEM): 5.56 µM (inactive)
- GI50 (COLO 205): 13.3 µM (inactive)
- GI50 (NCI-H23): 16.5 µM (inactive)
- GI50 (IGROV-1): 12.7 µM (inactive)
- GI50 (MDA-MB-435): 15 µM (inactive)
- GI50 (NCI-H522): 7.19 µM (inactive)
- GI50 (SK-MEL-28): 15.8 µM (inactive)
- GI50 (SF-539): 6.25 µM (inactive)
- GI50 (SW-620): 28.7 µM (inactive)
- GI50 (U-251): 10.4 µM (inactive)
- GI50 (UACC-62): 10.5 µM (inactive)
- GI50 (ACHN): 6.7 µM (inactive)
- GI50 (OVCAR-8): 7.98 µM (inactive)
- GI50 (SK-MEL-5): > 10 µM (inactive)
- GI50 (SR): 3.61 µM (inactive)

Compound: Cc1ccc2[nH]c3[nH]c(=O)[nH]c(=O)c3c2c1
- GI50 (CAKI-1): > 100 µM (inactive)
- GI50 (HCT-15): > 100 µM
- GI50 (T47D): > 100 µM (inactive)
- GI50 (HT-29): > 100 µM (inactive)
- GI50 (OVCAR-3): > 100 µM (inactive)
- GI50 (HOP-62): > 100 µM (inactive)
- GI50 (MDA-N): > 100 µM (inactive)
- GI50 (NCI-H226): > 100 µM (inactive)
- GI50 (HL-60): > 100 µM (inactive)
- GI50 (MCF7): > 100 µM (inactive)
- GI50 (SNB-19): > 100 µM (inactive)
- GI50 (HOP-92): > 100 µM (inactive)
- GI50 (SNB-75): > 100 µM (inactive)
- GI50 (UO-31): > 100 µM (inactive)
- GI50 (A549): > 100 µM (inactive)
- GI50 (RXF 393): > 100 µM (inactive)
- GI50 (786-0): > 100 µM (inactive)
- GI50 (SF-268): > 100 µM (inactive)
- GI50 (A498): > 100 µM (inactive)
- GI50 (RPMI-8226): > 100 µM (inactive)
- GI50 (MOLT-4): > 100 µM (inactive)
- GI50 (OVCAR-5): > 100 µM (inactive)
- GI50 (SK-MEL-2): > 100 µM (inactive)
- GI50 (SF-295): 58.3 µM (inactive)
- GI50 (UACC-257): > 100 µM (inactive)
- GI50 (SK-OV-3): > 100 µM (inactive)
- GI50 (HCT-116): > 100 µM (inactive)
- GI50 (K562): > 100 µM (inactive)
- GI50 (Hs-578T): > 100 µM (inactive)
- GI50 (DU-145): > 100 µM (inactive)
- GI50 (Malme-3M): > 100 µM (inactive)
- GI50 (LOX IMVI): > 100 µM (inactive)
- GI50 (BT-549): > 100 µM (inactive)
- GI50 (TK-10): > 100 µM (inactive)
- GI50 (NCI/ADR-RES): > 100 µM (inactive)
- GI50 (M14): > 100 µM (inactive)
- GI50 (KM12): 43.6 µM (inactive)
- GI50 (SN12C): > 100 µM (inactive)
- GI50 (CCRF-CEM): > 100 µM (inactive)
- GI50 (COLO 205): > 100 µM (inactive)
- GI50 (NCI-H23): > 100 µM (inactive)
- GI50 (IGROV-1): > 100 µM (inactive)
- GI50 (MDA-MB-435): > 100 µM (inactive)
- GI50 (NCI-H522): > 100 µM (inactive)
- GI50 (SF-539): > 100 µM (inactive)
- GI50 (SW-620): > 100 µM (inactive)
- GI50 (UACC-62): > 100 µM (inactive)
- GI50 (ACHN): > 100 µM (inactive)
- GI50 (OVCAR-8): > 100 µM (inactive)
- GI50 (SK-MEL-5): > 100 µM (inactive)
- GI50 (SR): > 10 µM (inactive)
- GI50 (EKVX): > 100 µM (inactive)
